Experimental data: article PMC4338433 (Scientific Reports, 2015)

Experiments:
[1] = target: H. contortus AVR-14B GluCl (wild-type) (Haemonchus contortus, UniProt O46124); type: cell-based; conditions: Wild-type AVR-14B GluCl, mean ± s.e.m.
Excerpt: (§1) All mutant cDNAs were generated from AVR-14B cDNA in the T7 plasmid vector[45] by conventional PCR with Pfu DNA polymerase (Thermo Scientific, Germany) and commercially generated mutagenesis primers (Eurofins MWG Operon, Ebersberg, Germany). All cDNAs were sequenced to confirm the presence of appropriate mutations (Eurofins MWG Operon) and linearized with XbaI (Thermo Scientific). cRNAs were synthesized with the mMESSAGE mMACHINE T7 Kit (Life Technologies GmbH, Darmstadt, Germany). X. laevis oocytes were used for two electrode voltage-clamp electrophysiology as previously described[48] and under approval of the Technical University of Darmstadt (Agreement V54-19c20/15 DA8/Anz. 20). […] Non-linear regression parameters were compared to the respective WT value with Student's unpaired t tests (Prism4).

AVR-14B GluCl R76N = assay: Two electrode voltage-clamp of Xenopus laevis oocytes expressing R76N mutant AVR-14B GluCl; type: cell-based, Haemonchus contortus
Excerpt: as §1, with “20). After 2–5 days, oocytes were perfused with extracellular solution (115 mM NaCl, 1 mM KCl, 1.8 mM CaCl2, 10 mM HEPES, pH 7.4 with NaOH) alone or containing agonist, and currents were sampled at 1 kHz and filtered at 500 Hz with a Digidata 1322A digitizer, Geneclamp 500B amplifier and Clampex software (Molecular Devices, Sunnyvale, CA, USA).” for “20).”

AVR-14B GluCl A197E = assay: Two electrode voltage-clamp of Xenopus laevis oocytes expressing A197E mutant AVR-14B GluCl; type: cell-based, Haemonchus contortus
Excerpt: as §1, with “20). After 2–5 days, oocytes were perfused with extracellular solution (115 mM NaCl, 1 mM KCl, 1.8 mM CaCl2, 10 mM HEPES, pH 7.4 with NaOH) alone or containing agonist, and currents were sampled at 1 kHz and filtered at 500 Hz with a Digidata 1322A digitizer, Geneclamp 500B amplifier and Clampex software (Molecular Devices, Sunnyvale, CA, USA).” for “20).”

AVR-14B GluCl K219A = target: T1, AVR-14B GluCl K219A (Haemonchus contortus, UniProt O46124, K219A); conditions: K219A mutant, mean ± s.e.m.
T1 sequence (O46124 31-438 K219A): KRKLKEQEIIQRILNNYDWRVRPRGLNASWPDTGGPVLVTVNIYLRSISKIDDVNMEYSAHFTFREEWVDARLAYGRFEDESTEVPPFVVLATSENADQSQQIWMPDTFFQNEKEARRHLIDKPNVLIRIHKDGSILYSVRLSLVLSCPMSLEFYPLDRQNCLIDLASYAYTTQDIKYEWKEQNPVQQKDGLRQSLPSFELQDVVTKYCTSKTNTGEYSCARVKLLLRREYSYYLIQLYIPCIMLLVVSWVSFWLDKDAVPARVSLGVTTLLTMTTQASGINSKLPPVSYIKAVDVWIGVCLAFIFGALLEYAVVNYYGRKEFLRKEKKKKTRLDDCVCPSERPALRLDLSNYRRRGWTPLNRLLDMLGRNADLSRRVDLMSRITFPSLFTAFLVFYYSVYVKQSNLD
Excerpt: as §1

AVR-14B GluCl Y248F = target: T2, AVR-14B GluCl Y248F (Haemonchus contortus, UniProt O46124, Y248F); conditions: Y248F mutant, mean ± s.e.m.
T2 sequence (O46124 31-438 Y248F): T1 sequence (O46124 31-438 K219A)
Excerpt: as §1

AVR-14B GluCl Q141R = target: T3, AVR-14B GluCl Q141R (Haemonchus contortus, UniProt O46124, Q141R); conditions: Q141R mutant; mean ± s.e.m.
T3 sequence (O46124 31-438 Q141R): T1 sequence (O46124 31-438 K219A)
Excerpt: as §1

AVR-14B GluCl S169A = target: T4, AVR-14B GluCl S169A (Haemonchus contortus, UniProt O46124, S169A); conditions: S169A mutant, mean ± s.e.m.
T4 sequence (O46124 31-438 S169A): T1 sequence (O46124 31-438 K219A)
Excerpt: as §1

AVR-14B GluCl T245A = target: T5, AVR-14B GluCl T245A (Haemonchus contortus, UniProt O46124, T245A); conditions: T245A mutant, mean ± s.e.m.
T5 sequence (O46124 31-438 T245A): T1 sequence (O46124 31-438 K219A)
Excerpt: as §1

[2] = target: T6, AVR-14B GluCl R76N/Q141R/K219A (RN/QR/KA) (Haemonchus contortus, UniProt O46124, K219A/Q141R/R76N); conditions: R76N/Q141R/K219A triple-mutant; mean ± s.e.m.
T6 sequence (O46124 31-438 R76N/Q141R/K219A): T1 sequence (O46124 31-438 K219A)
Excerpt: as §1

AVR-14B GluCl R95A = assay: Two electrode voltage-clamp of Xenopus laevis oocytes expressing R95A mutant AVR-14B GluCl; type: cell-based, Haemonchus contortus; conditions: 1 μM ivermectin, mean ± s.e.m.
Excerpt: as §1, with “20). After 2–5 days, oocytes were perfused with extracellular solution (115 mM NaCl, 1 mM KCl, 1.8 mM CaCl2, 10 mM HEPES, pH 7.4 with NaOH) alone or containing agonist, and currents were sampled at 1 kHz and filtered at 500 Hz with a Digidata 1322A digitizer, Geneclamp 500B amplifier and Clampex software (Molecular Devices, Sunnyvale, CA, USA).” for “20).”

AVR-14B GluCl Y199F = assay: Two electrode voltage-clamp of Xenopus laevis oocytes expressing Y199F mutant AVR-14B GluCl; type: cell-based, Haemonchus contortus; conditions: 1 μM ivermectin, mean ± s.e.m.
Excerpt: as §1, with “20). After 2–5 days, oocytes were perfused with extracellular solution (115 mM NaCl, 1 mM KCl, 1.8 mM CaCl2, 10 mM HEPES, pH 7.4 with NaOH) alone or containing agonist, and currents were sampled at 1 kHz and filtered at 500 Hz with a Digidata 1322A digitizer, Geneclamp 500B amplifier and Clampex software (Molecular Devices, Sunnyvale, CA, USA).” for “20).”

Compound	Glutamate nH ([1]; Hill coefficient)	Glutamate Imax ([1]; maximum glutamate-gated current) [μA]	Gating by glutamate (AVR-14B GluCl R76N; glutamate up to 100 mM)	Glutamate-gated currents (AVR-14B GluCl A197E; effect of the A197E substitution)	Glutamate nH (AVR-14B GluCl K219A; Hill coefficient)	Glutamate Imax (AVR-14B GluCl K219A) [μA]	Glutamate nH (AVR-14B GluCl Y248F; Hill coefficient)	Glutamate Imax (AVR-14B GluCl Y248F) [μA]	Glutamate Imax (AVR-14B GluCl Q141R) [μA]	Glutamate nH (AVR-14B GluCl S169A; Hill coefficient)	Glutamate Imax (AVR-14B GluCl S169A) [μA]	Glutamate nH (AVR-14B GluCl T245A; Hill coefficient)	Glutamate Imax (AVR-14B GluCl T245A) [μA]	Glutamate Imax [2] [μA]	Ivermectin Imax ([1]; 1 μM ivermectin) [μA]	Ivermectin Imax (AVR-14B GluCl R76N; 1 μM ivermectin, mean ± s.e.m.) [μA]	Ivermectin Imax (AVR-14B GluCl A197E; 1 μM ivermectin, A197E mutant, mean ± s.e.m.) [μA]	Ivermectin Imax (AVR-14B GluCl R95A) [μA]	Ivermectin Imax (AVR-14B GluCl Y199F) [μA]
N[C@@H](CCC(=O)O)C(=O)O [Glutamate]	1.7 ± 0.2	3.1 ± 0.3	not substantially gated	abolished	2.1 ± 0.4	3.3 ± 0.5	1.9 ± 0.2	4.3 ± 0.8	1.1 ± 0.4	1.8 ± 0.2	4.3 ± 1.1	2.0 ± 0.1	5.5 ± 0.8	2.3 ± 0.3	–	–	–	–	–
Ivermectin	–	–	–	–	–	–	–	–	–	–	–	–	–	–	2.4 ± 0.4	3.6 ± 1.0	2.4 ± 0.7	4.8 ± 1.9	0.7 ± 0.2
